According to US6517812B1, “Inhibition of psychostimulant-induced and nicotine-induced craving” (The General Hospital Corporation, priority 1997, dated 2003):
Several values for one entry are separate records, joined by “and”; a condition that tells them apart may be missing. Equal values may be shown once. Read-outs that look alike come from different tables or passages of the source.

Tests used:
Format in all cases: in vivo
[1] = Plasma cocaine levels after IV infusion (liquid chromatography with photodiode array detection); conditions: human, 0.6 mg/kg IV; for Cmax: plasma, iv
Description: Sequential 4 ml venous blood samples were collected immediately before and at 1, 3, 5, 10, 15, 30, 60, 90 and 120 minutes following each infusion. The 120 minute sample for the first infusion was also the pre-infusion sample for the second infusion.
Plasma/Urine Levels: Cocaine quantitative assays were performed by the MGH Clinical Chemistry Laboratory using a liquid chromatography with photodiode array detection method they developed (Puopolo et al., 1992, Clin. Chem. 38:1838-1842), with minor modifications (flow rate increased from 2.0 to 2.6 ml/minute and LCPCN column length increased from 150 to 250 mm). Intra-assay imprecision at […] for cocaine is 5.1%, 5.7% and 6.6% respectively.

[2] = system: rat frontal cortex; assay: BOLD fMRI in drug-naive rat after IV cocaine
Description: All procedures were carried out in accordance with NIH guidelines. Male Harlan Sprague-Dawley rats (225-300 gm) were anesthetized briefly with 1.5% halothane in oxygen for insertion of left femoral arterial and venous cannulae and placement of tracheostomy for mechanical ventilation (using a 16 gauge intravenous catheter, Inste-W, Becton Dickinson, Sandy, Utah). All wounds were infiltrated with 1% lidocaine before incision. Following surgery, the inspired halothane concentration was reduced to 0.7% and rats were paralyzed with 2 mg/kg intravenous pancuronium, followed by a continuous intravenous infusion of pancuronium at 2 mg/kg/hr. Pancuronium was dissolved in normal saline administered at 5 ml/kg/hr. Rats were mechanically ventilated (in a small animal volume controlled ventilator, Harvard Apparatus, Inc., South Natick, Mass.) with a 80/20 air/oxygen mixture, an inspiratory to expiratory ratio of 1:1, and an initial tidal volume of 3.0 ml at a rate of 40 breaths per minute. […] Arterial blood samples (150 μl) withdrawn from cannula were analyzed for arterial partial pressures of oxygen, carbon dioxide, and pH (Ciba-Coming Model 1304) before administration of drugs, and at the end of each experiment before sacrifice, to ensure animal stability. Arterial blood pressure and rectal temperature were monitored throughout the experiment. […]

[3] = system: cocaine-dependent volunteers; assay: Physiological monitoring (HR, MBP, ETCO2, ECG) after double-blind IV cocaine infusion; conditions: human
Description: Subjects were admitted to the MGH GCRC for the screening procedures; those meeting all criteria were boarded overnight on the unit in preparation for imaging the following day. The following morning the subject had bilateral intravenous catheters placed (right forearm for cocaine or saline infusion, left forearm for serial venous blood sampling for quantitative cocaine levels). Scanning was performed between 11AM and 3PM during which the subject was in the scanner for two periods of time each lasting from 45 to 90 minutes. During each scanning period, one infusion was given, either cocaine (0.6 mg/kg, maximum dose 40 mg) or saline (both in a volume of 10 cc given over 30 seconds IV) in a randomized, double blind order. Five different scans were performed during each period. The infusion itself was made 5 minutes into an 18 minute long blood oxygen level dependent (BOLD) scan. The BOLD infusion scan was bracketed by flow-sensitive alternating inversion recovery (FAIR) and visual stimulation BOLD scans (the data from these scans were used to delineate the global vs. regional signal changes from cocaine). The time interval between functional scans within a period was kept to a minimum. The entire sequence of 5 functional scans was completed within 45-60 minutes. The subject was removed from the scanner for a 15-30 minute rest and then was returned to magnet and the sequence was repeated for the second infusion. A minimum of two hours had to pass between each double-blind infusion.
Physiologic monitoring was conducted using an In Vivo OmniTrak 3100 patient monitoring system (Orlando, Fla.) modified to permit on-line computer acquisition of physiologic measurements. Each subject was fitted with chest leads to record the electrocardiogram (ECG) and to measure heart rate (HR), a nasal cannula to measure respiratory rate and end-expiratory carbon dioxide (ETCO2), and a blood pressure cuff to measure non-invasively systemic mean blood pressure (MBP). The temporal resolution of the system for sampling blood pressure was once every two minutes.
Precautions taken to ensure safe conduct of the study included use of ACLS trained personnel, frequent running of mock codes with clocked performance of tasks and strict definition of individual tasks, and presence of a cardiologist at the time of all infusions whose sole responsibility was to monitor subject safety. Before and after completion of both infusions, subjects underwent a 12-lead ECG to determine the absence of any interval change from the experiments. Because of magnetohydrodynamic effects on the ECG tracing, a baseline rhythm strip was obtained prior to each drug infusion and all subsequent tracings were compared to that one.
Physiological Data: The data analysis and graphing program IGOR (WaveMetrics, Inc.) was used to analyze the data. Data were first analyzed by a 2 way ANOVA with drug treatment (saline, cocaine) and time of measurement as factors. When significant F values were obtained for one of the physiologic measures, individual time points were compared by post-hoc t-tests to determine if (and at what times) the change from baseline was significant. The Bonferroni correction for multiple comparisons was used; the criteria for significance at the 0.05 level was p<0.007.

[4] = system: human brain, limbic and paralimbic regions; assay: BOLD fMRI of brain activation after cocaine infusion (KS maps, pre vs post infusion); conditions: voxels p<10^−5, four subjects
Description: Scanning was performed with a quadrature head-coil and a 1.5 T MR scanner (General Electric) modified for echo-planar imaging (Advanced NMR). Imaging involved the following protocol. First, a sagittal localizer scan [conventional T1-weighted spoiled gradient refocused gradient echo (SPGR) sequence; through-plane resolution=2.8 mm; 60 slices] was performed to orient, for subsequent scans, 15 contiguous axial slices covering the whole brain. This scan was also used as the structural scan for Talairach transformation. Next, an automated shimming technique was used to optimize B0 homogeneity (Reese et al., 1995, J. Magn. Reson. Imaging 5:739-745). This was followed by a SPGR T1-weighted flow-compensated scan (resolution=1.6 mm×1.6 mm×8 mm) scan, which was primarily obtained to aid Talairach transformation during data analysis (see Breiter et al., 1996, Arch. Gen. Psychiatry 53:595-606). The fourth scan was a T1-weighted echo planar inversion recovery sequence (TI=1200 msec, in-plane resolution=1.57 mm) for high-resolution structural images to be used in preliminary statistical maps, but not with Talairach transformed or averaged maps. Finally, BOLD imaging was performed using an asymmetric spin echo T2*-weighted sequence (TR=8000, TE=50, 180 refocusing pulse offset by −25 ms; FOV=40×20 cm; in-plane resolution=3.125 mm; through-plane resolution=8 mm; 15 contiguous axial slices covering the whole brain) to measure ‘activation’ (local changes in blood flow and oxygenation) (Kwong et al., 1992, Proc. Natl. Acad. Sci. 89:5675-5679; Ogawa et al., 1992, Proc. Natl. Acad. Sci. 89:5957-5955; Bandettini et al., 1992, Magn. Reson. Med. 25:390-397). Images were acquired interleaved for 136 time points for each infusion.
Motion correction: To reduce head motion, each subject was positioned using a bitebar, and echo-planar data was motion corrected using an algorithm (Jiang et al., 1995, Hun. Brain Mapp. 3:1-12) adapted from Woods et al (1992), and described elsewhere (Breiter et al., 1996, Arch. Gen. Psychiatry 53:595-606). […] After motion correction, time-series data were inspected to assure that no data set evidenced residual motion in the form of cortical rim or ventricular artifacts >1 voxel.
Talairach transformation: Each individual's set of infusion related functional images, along with the associated conventional structural scans, were transformed into Talairach space (Talairach et al., 1988, New York: Thieme Medical Publishers; Breiter et al., 1996, Arch. Gen. Psychiatry 53:595-606; Breiter et al., 1996, Neuron 17:875-887) and resliced in the coronal orientation over 57 slices with isotropic voxel dimensions (x,y,z=3.125 mm). […]

COC(=O)[C@H]1[C@@H](OC(=O)c2ccccc2)C[C@@H]2CC[C@H]1N2C [cocaine]
time to peak cocaine plasma concentration, mean±SD ([1]; 4 subjects with re-test experiments): 6.0 ± 2.9 min | time to peak cocaine plasma concentration, mean±SD ([1]; initial series of experiments, 0.6 mg/kg): 7.6 ± 4.2 min and ~7 min | Cmax ([1]; 0.6 mg/kg, n=7, range over subjects, read-out: Peak plasma cocaine levels (Cmax), range): 197 to 893 ng/mL | Cmax ([1]; 0.6 mg/kg, n=7 subjects with complete data, read-out: Peak plasma cocaine levels (Cmax), mean): 389 ± 233 ng/mL | time of return of BOLD contrast to baseline ([2]; cocaine 0.5 mg/kg IV, after infusion): 20 min | maximal R2 (BOLD contrast) ([2]; cocaine 1 mg/kg IV): 2.5 ± 0.6 s⁻¹ | cardiac rhythm (ECG) ([3]; all subjects throughout the study): Normal sinus rhythm | time for HR, MBP and ETCO2 to return to baseline ([3]; cocaine 0.6 mg/kg IV): ≤ 2 h | heart rate (HR) ([3]; cocaine 0.6 mg/kg IV over 30 seconds, n=17, 2 minutes post-infusion): 79±16 bpm | mean blood pressure (MBP) ([3]; cocaine 0.6 mg/kg IV, 2 minutes post-infusion): 101±12 torr | mean blood pressure (MBP) ([3]; cocaine 0.6 mg/kg IV, 5 minutes): 111±15 torr | end-tidal carbon dioxide (ETCO2) ([3]; cocaine 0.6 mg/kg IV, by 10 minutes): 36±4 mm Hg | heart rate (HR) ([3]; cocaine 0.6 mg/kg IV, n=17, 5 minutes post infusion): 82±12 bpm | heart rate (HR) ([3]; cocaine 0.6 mg/kg IV, n=17, 10 minutes post infusion): 93±14 bpm | percent signal change, NAc/SCC Left ([4]; retest condition): 2.3% | percent signal change, NAc/SCC Right ([4]; retest condition): 2.1% | percent signal change, NAc/SCC Left ([4]; test condition): 3.8% | percent signal change, NAc/SCC Right ([4]; test condition): 2.4%
